Each structure is given as a SMILES string. pIC50: −log10 of the molar value.

Chain of CDK4/CyclinD1 (P11802 whole entry): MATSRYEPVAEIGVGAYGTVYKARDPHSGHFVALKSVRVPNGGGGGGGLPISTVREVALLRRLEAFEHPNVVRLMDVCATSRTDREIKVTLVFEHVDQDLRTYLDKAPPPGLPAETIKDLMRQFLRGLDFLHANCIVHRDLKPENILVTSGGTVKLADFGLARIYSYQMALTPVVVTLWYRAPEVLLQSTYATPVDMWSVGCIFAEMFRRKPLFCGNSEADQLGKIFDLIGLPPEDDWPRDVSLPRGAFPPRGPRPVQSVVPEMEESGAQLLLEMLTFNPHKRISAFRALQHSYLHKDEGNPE
Chain of CDK4/CyclinD1 (P24385 whole entry partner): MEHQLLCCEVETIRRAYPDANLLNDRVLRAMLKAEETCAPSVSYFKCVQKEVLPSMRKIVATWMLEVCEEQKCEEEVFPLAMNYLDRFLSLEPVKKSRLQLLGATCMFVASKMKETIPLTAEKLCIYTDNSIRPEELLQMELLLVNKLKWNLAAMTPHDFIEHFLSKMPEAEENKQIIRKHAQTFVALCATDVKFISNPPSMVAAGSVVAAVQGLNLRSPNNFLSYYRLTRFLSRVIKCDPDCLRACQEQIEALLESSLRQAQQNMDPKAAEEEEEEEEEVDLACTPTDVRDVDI
Chain of CDK9/CyclinT1 (P50750 whole entry): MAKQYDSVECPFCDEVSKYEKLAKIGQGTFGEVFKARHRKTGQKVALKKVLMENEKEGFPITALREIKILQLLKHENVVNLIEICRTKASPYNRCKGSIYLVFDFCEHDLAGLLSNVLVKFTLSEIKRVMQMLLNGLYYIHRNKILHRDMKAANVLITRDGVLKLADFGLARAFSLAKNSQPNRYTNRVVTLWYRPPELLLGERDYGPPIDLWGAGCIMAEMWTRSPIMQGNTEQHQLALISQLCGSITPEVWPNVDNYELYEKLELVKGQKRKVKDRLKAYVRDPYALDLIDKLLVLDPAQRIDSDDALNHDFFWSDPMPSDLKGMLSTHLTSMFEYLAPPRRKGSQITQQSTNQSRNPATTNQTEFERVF
Chain of CDK9/CyclinT1 (O60563 whole entry partner): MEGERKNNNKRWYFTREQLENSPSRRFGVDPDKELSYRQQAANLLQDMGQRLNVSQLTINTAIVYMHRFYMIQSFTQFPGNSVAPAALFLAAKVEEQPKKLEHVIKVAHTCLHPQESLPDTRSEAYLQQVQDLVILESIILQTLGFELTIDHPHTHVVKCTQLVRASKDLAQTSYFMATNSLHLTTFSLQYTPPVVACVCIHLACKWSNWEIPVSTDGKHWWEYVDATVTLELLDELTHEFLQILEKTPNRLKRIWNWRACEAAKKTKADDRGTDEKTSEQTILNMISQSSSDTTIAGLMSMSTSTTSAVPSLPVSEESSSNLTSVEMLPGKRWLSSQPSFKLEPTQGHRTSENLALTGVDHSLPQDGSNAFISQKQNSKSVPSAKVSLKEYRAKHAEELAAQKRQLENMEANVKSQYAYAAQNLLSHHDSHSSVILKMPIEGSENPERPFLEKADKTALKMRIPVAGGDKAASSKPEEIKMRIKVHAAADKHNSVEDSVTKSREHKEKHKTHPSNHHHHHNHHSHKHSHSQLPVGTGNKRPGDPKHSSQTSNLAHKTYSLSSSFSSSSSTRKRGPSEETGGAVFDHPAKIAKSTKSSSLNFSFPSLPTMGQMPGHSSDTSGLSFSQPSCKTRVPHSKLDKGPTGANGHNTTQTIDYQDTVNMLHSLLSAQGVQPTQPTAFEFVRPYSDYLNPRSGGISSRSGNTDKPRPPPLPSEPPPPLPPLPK

The first test concerns the target CDK2/CyclinE1 (Homo sapiens (Human), UniProt P24941). Put plainly: CDK2/CyclinE1 enzyme activity test (ADP-Glo). It counts as biochemical. The note with it: 150 μM ATP, 25° C. 60 minutes, read-out: CDK2/Cyclin E1 IC50. The method, then: CDK2/CyclinE1 Enzyme Reaction System
(§1) Enzymes, substrates, ATP, and inhibitors were diluted by kinase buffer in the kit. The compounds to be tested were diluted 5-fold with a multi-channel pipette to the eighth concentration, that is, from 50 μM to 0.65 nM, the concentration of DMSO was 5%, and a double-hole experiment was set up. 1 μL of each concentration gradient of inhibitors, 2 μL of CDK2/CyclinE1 enzyme (2 ng), 2 μL mixture of substrate and ATP (150 μM ATP, 0.1 μg/μL substrate) were added to the microplates, and the final concentration gradient of the compound was 10 μM to 0.13 nM. The reaction system was reacted at 25° C. for 60 minutes. After the reaction, 5 μL of ADP-Glo reagent was added to each well, the reaction was carried out at 25° C. for 40 minutes, after the reaction was completed, 10 μL of kinase detection reagent was added to each well, the reaction was carried out at 25° C. for 30 minutes, the multiple label analyzer was used to read the chemiluminescence with an integration time of 0.5 seconds.
(§2) The equation (Sample−Min)/(Max−Min)*100% was used to convert the raw data into inhibition rate, and the value of IC50 can be obtained by curve fitting with four parameters (obtained by log (inhibitor) vs. response-Variable slope mode in GraphPad Prism). The enzymatic inhibitory activity of the compounds of the present disclosure on CDK1/CyclinB1, CDK2/CyclinA2, CDK2/CyclinE1, CDK4/CyclinD1, CDK6/CyclinD1, CDK7/CyclinH/MAT1, CDK9/CyclinT1 was provided in Table 1.
With `CS(=O)(=O)N1CCC(Nc2ncc3cc(C(F)F)nc(N[C@@H]4CCCC4(F)F)c3n2)CC1` (single isomer, unassigned) [Compound 22], the pIC50 was 8.45.

Consider `Cc1cn(C)nc1Nc1nc(C(F)F)cc2cnc(NC3CCN(S(C)(=O)=O)CC3)nc12` [Compound 19], for which the pIC50 is 8.33.

`Cn1cc(Cl)c(Nc2nc(C(F)F)cc3cnc(NC4CCN(S(C)(=O)=O)CC4)nc23)n1` [Compound 20]: the pIC50 is 8.88.

For another test, the system named is human ovarian cancer OVCAR-3 cells subcutaneous xenograft tumor. Put plainly: In vivo efficacy study, OVCAR-3 subcutaneous xenograft tumor BALB/c nude mouse model. The note with it: Day 0 (at grouping), OVCAR-3 xenograft, BALB/c nude mice. As to the method:
In vivo efficacy study of human ovarian cancer OVCAR-3 cells subcutaneous xenograft tumor BALB/c nude mouse model
Cell culture: Human ovarian cancer OVCAR-3 cells were monolayer cultured in vitro, the culture conditions were 10% fetal bovine serum, 100 U/mL Penicillin and 100 μg/mL Streptomycin were added in RPMI 1640 medium, cultured at 37° C. 5% CO2 incubator. Conventional digestion with trypsin-EDTA was performed for passage. When the cell saturation was 80%/90% and the number reached the required level, the cells were collected, counted, and inoculated.
Animals: BALB/c nude mice, female, 6-8 weeks old, weighed 18-22 grams. A total of 95 (42+ additional 53) animals were needed, provided by the Experimental Animal Management Department of Shanghai Institute of Family Planning Sciences (formerly Shanghai Sipulbichem).
Tumor inoculation: 0.2 mL (1×10^7) OVCAR-3 cells (with matrix glue, volume ratio of 1:1) were subcutaneously inoculated on the right back of each mouse, and the mice were grouped administrated when the average tumor volume reached about 150 mm^3.
Dosage and frequency of administration: Day 0 to Day 7, 10 mg/kg; Day 7 to Day 14, 10 mg/kg; Day 14 to Day 21, 30 mg/kg;
Experimental index: The experimental index was used to examine whether tumor growth was inhibited, delayed or cured. Tumor diameters were measured with vernier calipers twice a week. The calculation formula of tumor volume was: V=0.5a×b^2, wherein a and b represented the long and short diameters of the tumor, respectively.
Consider `CS(=O)(=O)N1CCC(Nc2ncc3cc(C(F)F)nc(N[C@@H]4CCCC4(F)F)c3n2)CC1` (single isomer, unassigned) [Compound 22], for which the “Tumor volume (Day 0)” value stood at 151 mm^3.

As for `Cc1cn(C)nc1Nc1nc(C(F)F)cc2cnc(NC3CCN(S(C)(=O)=O)CC3)nc12` [Compound 19], the “Tumor volume (Day 0)” value was 151 mm^3.

Take `Cn1cc(Cl)c(Nc2nc(C(F)F)cc3cnc(NC4CCN(S(C)(=O)=O)CC4)nc23)n1` [Compound 20]: the “Tumor volume (Day 0)” value turned out to be 151 mm^3.

Still in this test, the particulars now being: Day 7; 10 mg/kg from day 0 to day 7.
As for `CS(=O)(=O)N1CCC(Nc2ncc3cc(C(F)F)nc(N[C@@H]4CCCC4(F)F)c3n2)CC1` (single isomer, unassigned) [Compound 22], the “Tumor volume (Day 7)” value worked out at 243 mm^3.

As for `Cc1cn(C)nc1Nc1nc(C(F)F)cc2cnc(NC3CCN(S(C)(=O)=O)CC3)nc12` [Compound 19], the “Tumor volume (Day 7)” value was 246 mm^3.

Regarding `Cn1cc(Cl)c(Nc2nc(C(F)F)cc3cnc(NC4CCN(S(C)(=O)=O)CC4)nc23)n1` [Compound 20], the “Tumor volume (Day 7)” value was 236 mm^3.

The same test, now with this note: Day 14; 10 mg/kg from day 0 to day 14.
Take `CS(=O)(=O)N1CCC(Nc2ncc3cc(C(F)F)nc(N[C@@H]4CCCC4(F)F)c3n2)CC1` (single isomer, unassigned) [Compound 22]: the “Tumor volume (Day 14)” value amounted to 319 mm^3.

`Cc1cn(C)nc1Nc1nc(C(F)F)cc2cnc(NC3CCN(S(C)(=O)=O)CC3)nc12` [Compound 19]: the “Tumor volume (Day 14)” value was found to be 375 mm^3.

For the compound `Cn1cc(Cl)c(Nc2nc(C(F)F)cc3cnc(NC4CCN(S(C)(=O)=O)CC4)nc23)n1` [Compound 20], the “Tumor volume (Day 14)” value was determined as 338 mm^3.

Still in this test, the particulars now being: Day 21; 10 mg/kg day 0 to day 14, 30 mg/kg from day 14 to day 21.
As to `CS(=O)(=O)N1CCC(Nc2ncc3cc(C(F)F)nc(N[C@@H]4CCCC4(F)F)c3n2)CC1` (single isomer, unassigned) [Compound 22], the “Tumor volume (Day 21)” value is listed as 238 mm^3.

Regarding `Cc1cn(C)nc1Nc1nc(C(F)F)cc2cnc(NC3CCN(S(C)(=O)=O)CC3)nc12` [Compound 19], the “Tumor volume (Day 21)” value is 392 mm^3.

As to `Cn1cc(Cl)c(Nc2nc(C(F)F)cc3cnc(NC4CCN(S(C)(=O)=O)CC4)nc23)n1` [Compound 20], the “Tumor volume (Day 21)” value amounted to 363 mm^3.

In the next test the target is CDK6/CyclinD1 (Homo sapiens (Human), UniProt Q00534). Nature of the test: CDK6/CyclinD1 enzyme activity test (LANCE Ultra TR-FRET). Type of test: biochemical. Conditions: 250 μM ATP, 25° C. 120 minutes, read-out: CDK6/Cyclin D1 IC50. As to the method: CDK6/CyclinD1 Enzyme Reaction System
Chain of CDK6/CyclinD1 (Q00534 whole entry): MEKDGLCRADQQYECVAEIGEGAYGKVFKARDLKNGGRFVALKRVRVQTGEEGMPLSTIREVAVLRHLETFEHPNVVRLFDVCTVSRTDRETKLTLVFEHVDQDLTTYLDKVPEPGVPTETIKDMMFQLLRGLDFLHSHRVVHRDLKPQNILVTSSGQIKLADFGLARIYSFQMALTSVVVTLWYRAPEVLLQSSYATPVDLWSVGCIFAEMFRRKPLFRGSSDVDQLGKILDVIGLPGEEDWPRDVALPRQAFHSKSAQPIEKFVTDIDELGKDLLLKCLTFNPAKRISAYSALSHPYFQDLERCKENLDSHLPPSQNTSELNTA
Chain of CDK6/CyclinD1 (P24385 whole entry partner): as the sequence (P24385 whole entry partner) above
(§3) Preparation of Kinase Buffer:
(§4) The composition of the buffer: 50 mM of hydroxyethylpiperazine ethanesulfonic acid solution at pH 7.5, 1 mM of ethylenediaminetetraacetic acid, 10 mM of magnesium chloride, 0.01% Brij-35, and 2 mM of dithiothreitol.
(§5) Enzymes, substrate LANCE Ultra ULight™-4E-BP-1(Thr37146) Peptide, ATP, and inhibitors were diluted by kinase buffer.
(§6) The compounds to be tested were diluted 5-fold with a multi-channel pipette to the eighth concentration, that is, from 40 μM to 0.512 nM, the concentration of DMSO was 4%, and a double-hole experiment was set up. […] The reaction system was reacted at 25° C. for 120 minutes. After the reaction, 5 μL mixture of EDTA and 2× LANCE™ Detection Buffer (1:1) were added to each well, the reaction was carried out at 25° C. for 5 minutes, after the reaction was completed, 5 μL of LANCE Ultra Eu-anti-P-4E-BP1(Thr37MS) (4 nM) was added to each well, the reaction was carried out at 25° C. for 60 minutes, the reaction signal was detected by Nivo instrument according to the principle of time-resolved fluorescence resonance energy transfer.
as §2
(Time-resolved FRET reads energy transfer from a long-lived donor to a nearby acceptor.)
On to `CS(=O)(=O)N1CCC(Nc2ncc3cc(C(F)F)nc(N[C@@H]4CCCC4(F)F)c3n2)CC1` (single isomer, unassigned) [Compound 22], for which the pIC50 was 8.87.

`Cc1cn(C)nc1Nc1nc(C(F)F)cc2cnc(NC3CCN(S(C)(=O)=O)CC3)nc12` [Compound 19]: the pIC50 is 8.94.

As for `Cn1cc(Cl)c(Nc2nc(C(F)F)cc3cnc(NC4CCN(S(C)(=O)=O)CC4)nc23)n1` [Compound 20], the pIC50 was 9.25.

A further test has as its target CDK4/CyclinD1 (Homo sapiens (Human), UniProt P11802). Nature of the test: CDK4/CyclinD1 enzyme activity test (LANCE Ultra TR-FRET). Type of test: biochemical. The note with it: 350 μM ATP, 25° C. 120 minutes, read-out: CDK4/Cyclin D1 IC50. As to the method:
CDK4/CyclinD1 Enzyme Reaction System
as §3, §4, §5, §6, §2
Regarding `CS(=O)(=O)N1CCC(Nc2ncc3cc(C(F)F)nc(N[C@@H]4CCCC4(F)F)c3n2)CC1` (single isomer, unassigned) [Compound 22], the pIC50 was 9.30.

For `Cc1cn(C)nc1Nc1nc(C(F)F)cc2cnc(NC3CCN(S(C)(=O)=O)CC3)nc12` [Compound 19], the pIC50 is 8.37.

Turning to `Cn1cc(Cl)c(Nc2nc(C(F)F)cc3cnc(NC4CCN(S(C)(=O)=O)CC4)nc23)n1` [Compound 20], the pIC50 was 9.09.

Another test concerns the target CDK9/CyclinT1 (Homo sapiens (Human), UniProt P50750). Put plainly: CDK9/CyclinT1 enzyme activity test (ADP-Glo). It counts as biochemical. Conditions: 100 μM ATP, 25° C. 120 minutes, read-out: CDK 9/Cyclin T1 IC50. As to the method: CDK9/CyclinT1 Enzyme Reaction System
as §1, with “of CDK9/CyclinT1” for “of CDK2/CyclinE1”, “enzyme (4” for “enzyme (2”, “ATP (100” for “ATP (150”, “ATP, 0.2” for “ATP, 0.1”, “for 120” for “for 60”
as §2
(In ADP-Glo the light output rises with the ADP produced.)
Consider `CS(=O)(=O)N1CCC(Nc2ncc3cc(C(F)F)nc(N[C@@H]4CCCC4(F)F)c3n2)CC1` (single isomer, unassigned) [Compound 22], for which the pIC50 was 7.43.

As for `Cc1cn(C)nc1Nc1nc(C(F)F)cc2cnc(NC3CCN(S(C)(=O)=O)CC3)nc12` [Compound 19], the pIC50 is 6.75.

For the compound `Cn1cc(Cl)c(Nc2nc(C(F)F)cc3cnc(NC4CCN(S(C)(=O)=O)CC4)nc23)n1` [Compound 20], the pIC50 is 6.98.

For the origin of these results see US20230303564A1, “PYRIMIDINE RING COMPOUND” (MEDSHINE DISCOVERY INC., priority 2020, published 2023).
